In patent publication US8222278B2, “Treatment of attention-deficit/hyperactivity disorder” (Abbott Laboratories, priority 2008, dated 2012):

Assays:
adults with ADHD [1] = test: Study A: weight and vital signs; type: in vivo, human; details: Atomoxetine 40 mg BID, final evaluation (LOCF)
Description: The treatment group differences in vital signs were analyzed using a Grizzle Model similar to the model used for the efficacy analyses with the exclusion of period-specific baselines.

adults with ADHD [2] = test: Study A: ABT-894 Adult ADHD Dose-Ranging crossover clinical study, efficacy rating scales; type: in vivo, human; details: Atomoxetine 40 mg BID
Description: (§1) A clinical study (Study A) was conducted to assess the safety and efficacy of ABT-894 compared to placebo in adults with ADHD and to evaluate the dose-response relationship.
A total of 243 subjects aged 18 to 60 years old meeting DSM-IV-TR criteria for ADHD were randomized across the 5 dose groups. Male or female patients were included. […] The disposition of the study subjects is further discussed with the study results below.
(§2) Subjects in each dose group received, in random order, both ABT-894 and placebo according to a 2×2 crossover design. Each treatment period was 4 weeks separated by a 2-week washout period.
Each site was assigned to one of two cohorts (Cohort A or Cohort B) in approximately a 3:2 ratio. Subjects in Cohort A were randomized in equal proportions to one of 6 treatment sequences in 3 dose groups, and subjects in Cohort B were randomized in equal proportions to one of 4 treatment sequences in 2 dose groups, as shown in Table 1. Within each dose group subjects received either ABT-894 or atomoxetine in Period 1 and placebo in Period 2, or placebo in Period 1 and ABT-894 or atomoxetine in Period 2.
The study medication was dispensed in the form of a capsule. Each capsule contained ABT-894, atomoxetine, or placebo. The capsules were made to look identical.
The primary efficacy endpoint was the Conners' Adult ADHD Rating Scale—Investigator Rated (CAARS:Inv) Total Score (18 items) at the final evaluation of each 4-week treatment period. The CAARS:Inv was assessed at baseline and Days 7. 14. 21, and 28 of each period. Each CAARS:Inv item was rated on a 4-point scale of frequency of occurrence (0=not at all, never; 3=very much. very frequently) during the previous 7 days.
(§3) Secondary efficacy endpoints included the CAARS:Inv Inattentive and Hyperactive/Impulsive Subscale Scores, Clinical Global Impression-ADHD-Severity Scale (CGI-ADHD-S). Adult ADHD Investigator Symptom Report Scale (AISRS), including total and subscales, and the Self-rated Connors Adult ADHD Rating Scale (CAARS-Self). Health outcomes including the Adult ADHD Quality of Life Scale (AAQoL) and Work Productivity and Activity Impairment Questionnaire (WPAI) were used to evaluate the validity of these scales in this study population for use in subsequent clinical trials.
The primary analysis was performed on each dose group separately according to the Statistical Analysis Plan (SAP). The primary statistical model that was used for analyzing the primary efficacy variable, the CAARS:INV total score, and all other secondary efficacy variables was determined by a SAP specified testing procedure. The comparability between two sequences for a given dose group with respect to the difference between period-specific baselines was tested using a one-way ANCOVA with the term of treatment and the Period I baseline as the covariate at the significance level of 0.10. The equal residual effect from Period I to Period II between two different sequences for a given dose group was tested using a standard model for cross-over data analysis, Grizzle model, on the term of “sequence” at the significance level of 0.10.
After the study blind was broken, across 5 dose groups. all the tests accepted the null hypothesis that there was no statistically significant treatment effect for the differences between the period-specific baselines. The tests also accepted the null hypothesis that there was no period residual effect in any of the dose groups. Accordingly, the Grizzle model was used as the primary analysis model to analyze treatment group difference for CAARS:INV total score at Day 28 for each dose group. The Grizzle Model was carried out by SAS PROC Mixed with the terms of study center. sequence, subjects within sequence, period, treatment, as well as period-specific baselines as covariates.
The primary efficacy dataset included all subjects who completed both periods of the study (completers dataset). […]

adults with ADHD [3] = test: Study A: patient-reported health outcomes (AAQoL, WPAI); type: in vivo, human; design: WPAI Absenteeism (employed), Mean Diff. / WPAI Impaired Work Effectiveness (employed), Mean Diff. / AAQoL Total, Mean Diff. / WPAI Overall Activity Impairment (all), Mean Diff. / WPAI Overall Work Impairment (employed), Mean Diff.: scale not given here; details: ATX 40 mg BID
Description: as §1, §2, §3

adults with ADHD [4] = test: Study A: treatment-emergent adverse events (safety dataset); details: Atomoxetine 40 mg BID, N = 50
Description: During each visit, blood pressure, heart rate, weight, medication accountability and tolerability, and adverse effects were assessed.
The safety dataset consisted of all subjects who took at least one dose of study drug. The reasons for discontinuation and the treatment-emergent adverse events were summarized by the treatment under which the discontinuation or event was reported.
Treatment-emergent adverse events were those that began or worsened following the first dose of study drug in Period 1. Adverse event monitoring was conducted at each study visit and until 30 days following discontinuation of study drug. Other routine safety assessments included vital signs, electrocardiograms, physical examinations, brief neurological examinations and laboratory tests.

CNCC[C@@H](Oc1ccccc1C)c1ccccc1 [Atomoxetine, (3R)-N-methyl-3-(2-methylphenoxy)-3-phenyl-propan-1-amine, reference compound]
Diastolic BP, mean difference from placebo (adults with ADHD [1]): 0.72 mm Hg | Pulse, mean difference from placebo (adults with ADHD [1]): 4.74 bpm | Systolic BP, mean difference from placebo (adults with ADHD [1]): 1.16 mm Hg | Weight, mean difference from placebo (adults with ADHD [1]): -0.73 kg | AISRS Hyperactivity Score, mean difference from placebo (adults with ADHD [2]; day 28, completers): −3.29 (−5.4, −1.2) | AISRS Inattention Score, mean difference from placebo (adults with ADHD [2]; day 28, completers): −3.81 (−6.1, −1.6) | AISRS Total Score, mean difference from placebo (adults with ADHD [2]; day 28, completers): −7.18 (−11.5, −2.9) | CAARS:Self ADHD Index, mean difference from placebo (adults with ADHD [2]; day 28, completers): −3.08 (−4.8, −1.3) | CAARS:Self Hyperactivity Score, mean difference from placebo (adults with ADHD [2]; day 28, completers): −1.43 (−2.4, −0.5) | CAARS:Self Impulsivity Score, mean difference from placebo (adults with ADHD [2]; day 28, completers): −1.17 (−1.9, −0.5) | CAARS:Self Inattention/Memory Score, mean difference from placebo (adults with ADHD [2]; day 28, completers): −1.56 (−2.5, −0.6) | CAARS:Self Problem with Self-concept Score, mean difference from placebo (adults with ADHD [2]; day 28, completers): −0.70 (−1.5, 0.1) | CAARS:Self Total Score, mean difference from placebo (adults with ADHD [2]; day 28, completers): −7.12 (−10.9, −3.3) | CGI-ADHD-S, mean difference from placebo (adults with ADHD [2]; day 28, completers): −0.45 (−0.8, −0.1) | CAARS:Inv ADHD Index, mean difference from placebo (adults with ADHD [2]; day 28, completers N = 40): −3.00 (−4.9, −1.1) | CAARS:Inv Hyperactive/Impulsive subscale score, mean difference from placebo (adults with ADHD [2]; day 28, completers N = 40): −1.43 (−2.4, −0.4) | CAARS:Inv Inattentive subscale score, mean difference from placebo (adults with ADHD [2]; day 28, completers N = 40): −3.89 (−6.3. −1.5) | CAARS:Inv Total Score, mean difference from placebo (adults with ADHD [2]; day 28, completers N = 40): −7.98 (−12.5. −3.5) | WPAI Absenteeism (employed), Mean Diff. (adults with ADHD [3]; N 18): 0.019 | WPAI Impaired Work Effectiveness (employed), Mean Diff. (adults with ADHD [3]; N 18): −0.143 | WPAI Overall Work Impairment (employed), Mean Diff. (adults with ADHD [3]; N 18): −0.12 | WPAI Overall Activity Impairment (all), Mean Diff. (adults with ADHD [3]; N 36): −0.13 | AAQoL Total, Mean Diff. (adults with ADHD [3]; N 40): 7.23 | Any Adverse Event, % of subjects (adults with ADHD [4]): (82.0) % | Any Adverse Event, number of subjects (adults with ADHD [4]): 41 subjects | Decreased appetite, % of subjects (adults with ADHD [4]): (12.0) % | Decreased appetite, number of subjects (adults with ADHD [4]): 6 subjects | Diarrhea, % of subjects (adults with ADHD [4]): (2.0) % | Diarrhea, number of subjects (adults with ADHD [4]): 1 subjects | Dizziness, % of subjects (adults with ADHD [4]): (8.0) % | Dizziness, number of subjects (adults with ADHD [4]): 4 subjects | Dry mouth, % of subjects (adults with ADHD [4]): (6.0) % | Dry mouth, number of subjects (adults with ADHD [4]): 3 subjects | Fatigue, % of subjects (adults with ADHD [4]): (12.0) % | Fatigue, number of subjects (adults with ADHD [4]): 6 subjects | Feeling hot and cold, % of subjects (adults with ADHD [4]): (6.0) % | Feeling hot and cold, number of subjects (adults with ADHD [4]): 3 subjects | Feeling jittery, % of subjects (adults with ADHD [4]): (6.0) % | Feeling jittery, number of subjects (adults with ADHD [4]): 3 subjects | Headache, % of subjects (adults with ADHD [4]): (14.0) % | Headache, number of subjects (adults with ADHD [4]): 7 subjects | Influenza-like illness, % of subjects (adults with ADHD [4]): (6.0) % | Influenza-like illness, number of subjects (adults with ADHD [4]): 3 subjects | Lethargy, % of subjects (adults with ADHD [4]): (6.0) % | Lethargy, number of subjects (adults with ADHD [4]): 3 subjects | Muscle Strain, % of subjects (adults with ADHD [4]): (0) % | Muscle Strain, number of subjects (adults with ADHD [4]): 0 subjects | Nasal congestion, % of subjects (adults with ADHD [4]): (4.0) % | Nasal congestion, number of subjects (adults with ADHD [4]): 2 subjects | Nausea, % of subjects (adults with ADHD [4]): (20.0) % | Nausea, number of subjects (adults with ADHD [4]): 10 subjects | Parathesia, % of subjects (adults with ADHD [4]): (10.0) % | Parathesia, number of subjects (adults with ADHD [4]): 5 subjects | Sleep disturbances, % of subjects (adults with ADHD [4]): (16.0) % | Sleep disturbances, number of subjects (adults with ADHD [4]): 8 subjects | Somnolence, % of subjects (adults with ADHD [4]): (8.0) % | Somnolence, number of subjects (adults with ADHD [4]): 4 subjects | Upper RTI, % of subjects (adults with ADHD [4]): (4.0) % | Upper RTI, number of subjects (adults with ADHD [4]): 2 subjects | Vomiting, % of subjects (adults with ADHD [4]): (2.0) % | Vomiting, number of subjects (adults with ADHD [4]): 1 subjects
